SMILES strings stand for the structures.

The target in the test is T1, human full-length recombinant PKC βII (Homo sapiens, UniProt P05771).
T1 construct: Active human full-length recombinant PKC βII; purchased Invitrogen GmbH, Darmstadt, Germany
T1 sequence (P05771 1-673 isoform P05771-2): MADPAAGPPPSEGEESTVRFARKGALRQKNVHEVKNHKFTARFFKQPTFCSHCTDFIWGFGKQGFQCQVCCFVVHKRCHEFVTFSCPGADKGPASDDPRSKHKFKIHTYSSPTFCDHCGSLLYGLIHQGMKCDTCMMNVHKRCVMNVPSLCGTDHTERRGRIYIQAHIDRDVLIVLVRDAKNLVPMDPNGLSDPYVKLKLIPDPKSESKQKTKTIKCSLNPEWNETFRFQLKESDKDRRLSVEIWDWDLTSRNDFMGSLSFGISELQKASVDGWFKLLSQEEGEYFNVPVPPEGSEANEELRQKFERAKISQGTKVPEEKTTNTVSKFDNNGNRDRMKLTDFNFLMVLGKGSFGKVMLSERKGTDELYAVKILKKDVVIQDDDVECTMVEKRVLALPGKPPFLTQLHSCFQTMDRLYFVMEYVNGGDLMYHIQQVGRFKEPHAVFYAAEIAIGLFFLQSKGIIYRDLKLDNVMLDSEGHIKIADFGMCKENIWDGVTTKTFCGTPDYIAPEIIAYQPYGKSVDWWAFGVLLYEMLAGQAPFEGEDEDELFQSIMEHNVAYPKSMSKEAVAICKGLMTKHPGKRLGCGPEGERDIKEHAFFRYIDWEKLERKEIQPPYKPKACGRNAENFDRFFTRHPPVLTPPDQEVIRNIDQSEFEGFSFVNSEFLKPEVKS
Nature of the test: Determination of PKC βII inhibition (Caliper mobility-shift kinase assay). It counts as biochemical. The note with it: example compounds at a final concentration of 1.14 μM (±0.15 μM); 60 min incubation at 32° C.
The term inhibition denotes the change of the read-out against control, counted positive when it falls. Consider `O=C1CC[C@@H](NC(=O)c2cc(-c3ccc(O)cc3)nc3[nH]ncc23)CN1` [Example 69, 6-(4-Hydroxy-phenyl)-1H-pyrazolo[3,4-b]pyridine-4-carboxylic acid ((R)-6-oxo-piperidin-3-yl)-amide], for which the inhibition at 1.14 µM is 59%.
Take `O=C(c1cc(-c2ccc(O)cc2)nc2[nH]ncc12)N1CCC2(CC1)CNC2` [Example 21, (2,7-Diaza-spiro[3.5]non-7-yl)-[6-(4-hydroxy-phenyl)-1H-pyrazolo[3,4-b]pyridin-4-yl]-methanone]: the inhibition at 1.14 µM is 59%.
For `CC(=O)N1CCC(NC(=O)c2cc(-c3ccc(O)cc3)nc3[nH]ncc23)CC1` [Example 68, 6-(4-Hydroxy-phenyl)-1H-pyrazolo[3,4-b]pyridine-4-carboxylic acid (1-acetyl-piperidin-4-yl)-amide] the value was 40%; for `O=C(N[C@@H]1CCCN(Cc2ccccc2)C1)c1cc(-c2ccc(O)cc2)nc2[nH]ncc12` [Example 77, 6-(4-Hydroxy-phenyl)-1H-pyrazolo[3,4-b]pyridine-4-carboxylic acid ((R)-1-benzyl-piperidin-3-yl)-amide], 57%.
For `O=C(c1cc(-c2ccc(O)cc2)nc2[nH]ncc12)N1CCC2(CC1)CNc1ccccc12` [Example 49] the value was 28%; for `O=C(c1cccnc1)N1CCN(C(=O)c2cc(-c3ccc(O)cc3)nc3[nH]ncc23)CC1` [Example 74, [6-(4-Hydroxy-phenyl)-1H-pyrazolo[3,4-b]pyridin-4-yl]-[4-(pyridine-3-carbonyl)-piperazin-1-yl]-methanone], 35%.

The values above are taken from patent publication US20130150340A1, “6-(4-Hydroxy-phenyl)-1H-pyrazolo[3,4-b]pyridine-4-carboxylic acid amide derivatives as kinase inhibitors” (SANOFI, priority 2011, published 2013).
